For assay [1], the target named is T1, PRMT5 (Homo sapiens, UniProt O14744).
T1 construct: purchased Viva (custom protein)
Kind of assay: PRMT5 biochemical IC50 assay with SAM as cofactor. Particulars: PRMT5, SAM as cofactor; read-out: SAM IC50.

Assay [2] deals with T1, PRMT5. Kind of assay: PRMT5 biochemical IC50 assay with no cofactor. Conditions: PRMT5, no cofactor. The source says:
Table 1 indicates IC50 values (μM) against PRMT5 for exemplary compounds in the presence of SAM as cofactor, with no cofactor, and with MTA as cofactor, respectively (columns 4-6). […] Ki values can be calculated from the IC50 values as described in the Examples section. As detailed in the Examples section, for the assay performed in the presence of SAM, IC50=Ki×1.5 (Ki=IC50/1.5).

Assay [3] deals with T1, PRMT5. The assay is described as follows: PRMT5 biochemical IC50 assay with MTA as cofactor. Particulars: PRMT5, MTA as cofactor; read-out: MTA IC50.
The subject of assay [4] is HAP1 MTAP-intact cell line. Kind of assay: SDMA in-cell western assay, HAP1 MTAP-intact. Format: cell-based. Particulars: Homo sapiens. The method, boiled down:
(§1)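 Readout: in-cell western detection of SDMA. Cells: HAP1 expressing endogenous MTAP and an MTAP-null HAP1 counterpart. Output: IC50.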

In assay [5] the test system is HAP1 MTAP-deleted cell line. The assay is described as follows: SDMA in-cell western assay, HAP1 MTAP-deleted. Format: cell-based. Particulars: for IC50: Homo sapiens; for MTAP intact/deleted ratio: SDMA in-cell western. The method in brief: as §1
In assay [6] the test system is HAP1 MTAP-deleted cell line. The assay is described as follows: Viability assay, MTAP-deleted cell line. The class given is cell-based. Particulars: Homo sapiens. The text has this:
Table 1 additionally indicates IC50 values in a viability assay for the MTAP-deleted cell line (column 10), indicating the effect of treatment with compound on cell survival.

Setting [7] is: read-out: No Cofactor/ rel IC50.
Setting [8] is: HAP1, SDMA in-cell western, HAP1 MTAP-intact, read-out: MTAP HAP1 intact IC50.
[9] abbreviates: HAP1, SDMA in-cell western, HAP1 MTAP-deleted, read-out: HAP 1 MTAP deleted IC50.
Setting [10] is: IC50 ratio HAP1 MTAP-intact / HAP1 MTAP-deleted.
[11] abbreviates: HAP1, viability, HAP1 MTAP-deleted cell line, read-out: HAP1 MTAP deleted viability.
Where [12] appears, read: HAP1, SDMA in-cell western, HAP1 MTAP-deleted, read-out: HAP1 MTAP deleted IC50.
[13] abbreviates: HAP1, viability assay, HAP1 MTAP-deleted, read-out: HAP1 MTAP deleted viability.
[14] abbreviates: HAP1, viability assay, MTAP-deleted cell line, read-out: HAP1 MTAP deleted viability.

Like-named read-outs stand apart in the source and are kept apart here.

T1 sequence (O14744 whole entry): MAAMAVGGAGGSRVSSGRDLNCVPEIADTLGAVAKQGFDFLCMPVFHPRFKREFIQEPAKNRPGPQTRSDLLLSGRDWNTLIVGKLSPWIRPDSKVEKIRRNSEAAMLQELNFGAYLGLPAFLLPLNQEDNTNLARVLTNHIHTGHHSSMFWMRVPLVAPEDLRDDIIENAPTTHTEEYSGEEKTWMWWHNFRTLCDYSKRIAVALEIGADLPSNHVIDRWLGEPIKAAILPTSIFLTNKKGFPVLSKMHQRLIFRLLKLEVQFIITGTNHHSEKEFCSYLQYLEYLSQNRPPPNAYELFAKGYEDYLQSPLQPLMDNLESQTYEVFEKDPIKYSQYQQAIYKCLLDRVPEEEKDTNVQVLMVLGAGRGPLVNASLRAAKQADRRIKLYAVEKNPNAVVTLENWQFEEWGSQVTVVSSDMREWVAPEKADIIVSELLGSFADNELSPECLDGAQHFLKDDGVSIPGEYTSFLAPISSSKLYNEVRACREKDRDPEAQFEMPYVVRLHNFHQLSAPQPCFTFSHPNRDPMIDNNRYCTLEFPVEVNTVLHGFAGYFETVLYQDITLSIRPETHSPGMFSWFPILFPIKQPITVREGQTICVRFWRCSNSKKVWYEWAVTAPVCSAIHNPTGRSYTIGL
T1 sequence (Q9BQA1 whole entry partner): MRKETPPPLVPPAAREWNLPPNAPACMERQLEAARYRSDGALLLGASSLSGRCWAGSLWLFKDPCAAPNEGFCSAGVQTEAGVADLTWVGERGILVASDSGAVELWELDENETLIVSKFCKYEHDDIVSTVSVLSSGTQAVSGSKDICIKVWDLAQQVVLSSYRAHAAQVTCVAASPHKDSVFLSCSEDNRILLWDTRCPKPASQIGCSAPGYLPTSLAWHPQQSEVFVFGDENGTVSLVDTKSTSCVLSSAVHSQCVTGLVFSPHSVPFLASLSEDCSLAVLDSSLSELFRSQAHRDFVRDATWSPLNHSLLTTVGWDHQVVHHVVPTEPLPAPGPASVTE

`CCc1cc(NC(=O)C(=O)N2C[C@@H](C)CC[C@@H]2c2ccc(CCN(C)C)c(Cl)c2)cnc1N` [Compound 1402, N-(6-amino-5-ethylpyridin-3-yl)-2-((2R,5S)-2-(3-chloro-4-(2-(dimethylamino)ethyl)phenyl)-5-methylpiperidin-1-yl)-2-oxoacetamide]: the IC50 was 50 to 500 nM in assay [1]; less than 50 nM in assay [2] (setting [7]); less than 50 nM in assay [3]; 100 to 1000 nM in assay [4] (setting [8]); less than 100 nM in assay [5] (setting [9]); less than 1000 nM in assay [6] (setting [11]). Further, the “MTAP intact/deleted ratio” value in assay [5] (setting [10]) is on record as “A (an IC50 ratio greater than or equal to 10 fold)”.
For `Cc1nc2cc([C@@H]3CC[C@@H](C)CN3C(=O)C(=O)Nc3cnc(N)c(C)c3)ccc2s1` (single isomer, unassigned) [Compound 730], the IC50 was greater than 500 nM in assay [1]; greater than 500 nM in assay [2] (read-out: No Cofactor/rel IC50); greater than 500 nM in assay [3]; greater than 1000 nM in assay [4] (setting [8]); greater than 1000 nM in assay [5] (setting [12]); greater than 10000 nM in assay [6] (setting [13]). Moreover, in assay [5] (setting [10]), the MTAP intact/deleted ratio result is “C (an IC50 ratio of less than 3 fold)”.
For `CCc1cc(NC(=O)C(=O)N2C[C@@H](C)CC[C@@H]2c2ccc(-c3nccs3)cc2)cnc1N` (single isomer, unassigned) [Compound 822], the IC50 in assay [1] is greater than 500 nM; in assay [2] (read-out: No Cofactor/rel IC50), greater than 500 nM; in assay [3] it was greater than 500 nM; in assay [4] (setting [8]), greater than 1000 nM; in assay [5] (setting [12]), greater than 1000 nM; in assay [6] (setting [13]) it was greater than 10000 nM. In addition, the MTAP intact/deleted ratio entry in assay [5] (setting [10]) is “C (an IC50 ratio of less than 3 fold)”.
In the case of `Cc1cc(NC(=O)C(=O)N2CCCCC2c2cccs2)cnc1N` (stereo not drawn) [Compound 9, N-(6-Amino-5-methylpyridin-3-yl)-2-oxo-2-(2-(thiophen-2-yl)piperidin-1-yl)acetamide], the IC50 is 50 to 500 nM in assay [1]; 50 to 500 nM in assay [2] (setting [7]); less than 50 nM in assay [3]; greater than 1000 nM in assay [4] (setting [8]); 100 to 1000 nM in assay [5] (setting [9]); greater than 10000 nM in assay [6] (setting [14]). The “MTAP intact/deleted ratio” value in assay [5] (setting [10]) was “A (an IC50 ratio greater than or equal to 10 fold)”.
For `C[C@@H]1CC[C@@H](c2ccc(Cl)c(F)c2)N(C(=O)C(=O)Nc2cncc(C(N)=O)c2)C1` (racemic) [Compound 327, rac-5-{2-[(2R,5S)-2-(4-Chloro-3-fluorophenyl)-5-methylpiperidin-1-yl]-2-oxoacetamido}pyridine-3-carboxamide], the IC50 in assay [1] is 50 to 500 nM; in assay [2] (read-out: No Cofactor/rel IC50), 50 to 500 nM; in assay [3], 50 to 500 nM; in assay [4] (setting [8]), greater than 1000 nM; in assay [5] (setting [12]) it was less than 100 nM; in assay [6] (setting [14]), 1000 to 10000 nM. Further, the MTAP intact/deleted ratio result in assay [5] (setting [10]) is listed as “A (an IC50 ratio greater than or equal to 10 fold)”.
Consider `Cc1cc(NC(=O)C(=O)N2C[C@@H](C)[C@H](C)C[C@H]2c2ccccc2)cnc1N` (single isomer, unassigned) [Compound 313], for which the IC50 is 50 to 500 nM in assay [1]; 50 to 500 nM in assay [2] (read-out: No Cofactor/rel IC50); less than 50 nM in assay [3]; greater than 1000 nM in assay [4] (setting [8]); less than 100 nM in assay [5] (setting [12]); 1000 to 10000 nM in assay [6] (setting [14]). Moreover, the MTAP intact/deleted ratio result in assay [5] (setting [10]) was “A (an IC50 ratio greater than or equal to 10 fold)”.
Regarding `Cc1cc(NC(=O)C(=O)N2C[C@@H](C)CC[C@@H]2c2ccc3c(c2)CNC3=O)cnc1N` (single isomer, unassigned) [Compound 591], the IC50 in assay [1] is greater than 500 nM; in assay [2] (read-out: No Cofactor/rel IC50) it was greater than 500 nM; in assay [3] it was greater than 500 nM; in assay [4] (setting [8]) it was greater than 1000 nM; in assay [5] (setting [9]) it was greater than 1000 nM; in assay [6] (HAP1, viability IC50, MTAP-deleted cell line, read-out: HAP1 MTAP deleted viability), greater than 10000 nM. Further, the MTAP intact/deleted ratio entry in assay [5] (setting [10]) is reported as “C (an IC50 ratio of less than 3 fold)”.
For the compound `C[C@H]1CC[C@@H](c2cccnc2)N(C(=O)C(=O)Nc2cncc(C(N)=O)c2)C1` (single isomer, unassigned) [Compound 104], the IC50 in assay [1] is 50 to 500 nM; in assay [2] (setting [7]), greater than 500 nM; in assay [3], 50 to 500 nM; in assay [4] (setting [8]), greater than 1000 nM; in assay [5] (setting [9]), greater than 1000 nM; in assay [6] (setting [14]), greater than 10000 nM. Moreover, in assay [5] (setting [10]), the “MTAP intact/deleted ratio” value is recorded as “B (an IC50 ratio greater than or equal to 3 fold but lower than 10 fold)”.
In the case of `Cc1cc(NC(=O)C(=O)N2C[C@@H](C)CC[C@@H]2c2ccc(CCN(C)C)cc2)cnc1N` (single isomer, unassigned) [Compound 1322], the IC50 is greater than 500 nM in assay [1]; greater than 500 nM in assay [2] (setting [7]); greater than 500 nM in assay [3]; greater than 1000 nM in assay [4] (setting [8]); greater than 1000 nM in assay [5] (setting [9]); greater than 10000 nM in assay [6] (setting [11]).
For `COc1ncc(NC(=O)C(=O)N2C[C@H](C)CC[C@H]2c2ccc(O)cc2)cc1C(N)=O` (single isomer, unassigned) [Compound 292], the IC50 in assay [1] is greater than 500 nM; in assay [2] (read-out: No Cofactor/rel IC50) it was greater than 500 nM; in assay [3], greater than 500 nM; in assay [4] (HAP1, read-out: MTAP HAP1 intact IC50), greater than 1000 nM; in assay [5] (HAP1, read-out: HAP1 MTAP deleted IC50), greater than 1000 nM; in assay [6] (HAP1, read-out: HAP1 MTAP deleted viability) it was greater than 10000 nM. The MTAP intact/deleted ratio entry in assay [5] (setting [10]) was “C (an IC50 ratio of less than 3 fold)”.
With `Cc1cc(NC(=O)C(=O)N2C[C@@H](C)CC[C@@H]2c2cc(F)cc(F)c2)cnc1N` (single isomer, unassigned) [Compound 734, N-(6-amino-5-methylpyridin-3-yl)-2-(2-(3,5-difluorophenyl)-5-methylpiperidin-1-yl)-2-oxoacetamide], the IC50 in assay [1] was 50 to 500 nM; in assay [2] (read-out: No Cofactor/rel IC50), less than 50 nM; in assay [3] it was less than 50 nM; in assay [4] (setting [8]), greater than 1000 nM; in assay [5] (setting [12]) it was less than 100 nM; in assay [6] (setting [13]) it was 1000 to 10000 nM. Also, the MTAP intact/deleted ratio entry in assay [5] (setting [10]) is “A (an IC50 ratio greater than or equal to 10 fold)”.
As for `C[C@@H]1CC[C@@H](c2cccc(Cl)c2)N(C(=O)C(=O)Nc2cncc(C(N)=O)c2)C1` (racemic) [Compound 174, rac-5-{2-[(2R,5S)-2-(3-Chlorophenyl)-5-methylpiperidin-1-yl]-2-oxoacetamido}pyridine-3-carboxamide], the IC50 in assay [1] was 50 to 500 nM; in assay [2] (read-out: No Cofactor/rel IC50), 50 to 500 nM; in assay [3], less than 50 nM; in assay [4] (setting [8]), greater than 1000 nM; in assay [5] (setting [12]), less than 100 nM; in assay [6] (setting [14]) it was 1000 to 10000 nM. Moreover, the MTAP intact/deleted ratio result in assay [5] (setting [10]) is “A (an IC50 ratio greater than or equal to 10 fold)”.
For the compound `C[C@H]1CC[C@H]2CCCC[C@H]2N1C(=O)C(=O)Nc1cncc(C(N)=O)c1` (single isomer, unassigned) [Compound 245], the IC50 in assay [1] was 50 to 500 nM; in assay [2] (read-out: No Cofactor/rel IC50), 50 to 500 nM; in assay [3], less than 50 nM; in assay [4] (setting [8]), greater than 1000 nM; in assay [5] (setting [12]) it was 100 to 1000 nM; in assay [6] (setting [14]) it was 1000 to 10000 nM. Moreover, in assay [5] (setting [10]), the MTAP intact/deleted ratio entry is “A (an IC50 ratio greater than or equal to 10 fold)”.
For the compound `CNC(=O)c1ccc([C@@H]2CC[C@@H](C)CN2C(=O)C(=O)Nc2cnc(N)c(C)c2)s1` (single isomer, unassigned) [Compound 849], the IC50 in assay [1] was greater than 500 nM; in assay [2] (read-out: No Cofactor/rel IC50), greater than 500 nM; in assay [3], greater than 500 nM; in assay [4] (setting [8]), greater than 1000 nM; in assay [5] (setting [12]), greater than 1000 nM; in assay [6] (setting [13]), greater than 10000 nM. Further, the MTAP intact/deleted ratio entry in assay [5] (setting [10]) was “C (an IC50 ratio of less than 3 fold)”.
Take `CO[C@@H]1C[C@@H](c2ccc3scnc3c2)N(C(=O)C(=O)Nc2cncc(C(N)=O)c2)C[C@@H]1C` (single isomer, unassigned) [Compound 1161]: the IC50 in assay [1] is 50 to 500 nM; in assay [2] (read-out: No Cofactor/rel IC50), less than 50 nM; in assay [3] it was less than 50 nM; in assay [4] (setting [8]) it was 100 to 1000 nM; in assay [5] (setting [12]) it was less than 100 nM; in assay [6] (setting [14]), less than 1000 nM. The MTAP intact/deleted ratio result in assay [5] (IC50 ratio HAP1 MTAP-intact vs HAP1 MTAP-deleted) is given as “A (an IC50 ratio greater than or equal to 10 fold)”.
For `CC(=O)Nc1ccc([C@@H]2CC[C@@H](C)CN2C(=O)C(=O)Nc2cncc(C(N)=O)c2)cn1` (single isomer, unassigned) [Compound 934], the IC50 was 50 to 500 nM in assay [1]; 50 to 500 nM in assay [2] (read-out: No Cofactor/rel IC50); less than 50 nM in assay [3]; greater than 1000 nM in assay [4] (setting [8]); 100 to 1000 nM in assay [5] (setting [9]); greater than 10000 nM in assay [6] (setting [14]). In addition, the MTAP intact/deleted ratio entry in assay [5] (setting [10]) is “A (an IC50 ratio greater than or equal to 10 fold)”.

The values are drawn from patent US11999727B2 (Tango Therapeutics, Inc., priority 2020, dated 2024).
